# Experimental data reported in patent publication US20230242591A1, “REGULATORY T CELL EPITOPES AND D[…]-COV-2 ANTIGENS” (EPIVAX, INC., priority 2020, published 2023).
# Tested on: CD4+ effector memory T cells
# Format: cell-based, human
sequence,measurement,value
PSFYVYSRVKNLNSSRVPDLLV (Severe acute respiratory syndrome coronavirus 2) [SEQ ID NO: 7],suppression of proliferation and activation of CD4+ effector T cells,Suppressed Proliferation and Activation
